The source made the active and inactive calls.
Tests used:
[1] = inhibitors of clade B AD8 Env fusion, dose response, cell-based, cherry-pick (AID 652062); assay type: functional;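 note: luciferase signal from cell-cell fusion driven by HIV-1 clade B AD8 Env; potency is for inhibitors of fusion seen as a drop in luminescence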
[2] = non-specific cell cytotoxicity, dose response, cytotoxicity control for PAX8 inhibitor project, plate reader, dry powder samples (AID 743021); assay type: functional, cell-based
[3] = NIH:OVCAR-3 ovarian cancer cell cytotoxicity, dose response, PAX8 inhibitor project, plate reader, dry powder samples (AID 743044); assay type: functional, cell-based
Paired box protein Pax-8 = Paired box protein Pax-8 (Homo sapiens, UniProt Q06710); assay: inhibitors of PAX8-driven TPO luciferase reporter, dose response, RMG-I cells, cherry-pick (AID 687027); assay type: functional, cell-based;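 note: luciferase reporter driven by Pax8 target thyroperoxidase promoter measured by SteadyGlo luminescence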
[4] = inhibitors of HIV Env-driven cell fusion, dose response, cherry-pick (AID 652057); assay type: functional, cell-based
[5] = target: T1, 1-phosphatidylinositol 4,5-bisphosphate phosphodiesterase beta-3 (Homo sapiens, UniProt Q01970); assay: Fluorescence-based biochemical high throughput dose response assay to identify inhibitors of phospholipase C isozymes (PLC-B3).
T1 sequence (Q01970 whole entry): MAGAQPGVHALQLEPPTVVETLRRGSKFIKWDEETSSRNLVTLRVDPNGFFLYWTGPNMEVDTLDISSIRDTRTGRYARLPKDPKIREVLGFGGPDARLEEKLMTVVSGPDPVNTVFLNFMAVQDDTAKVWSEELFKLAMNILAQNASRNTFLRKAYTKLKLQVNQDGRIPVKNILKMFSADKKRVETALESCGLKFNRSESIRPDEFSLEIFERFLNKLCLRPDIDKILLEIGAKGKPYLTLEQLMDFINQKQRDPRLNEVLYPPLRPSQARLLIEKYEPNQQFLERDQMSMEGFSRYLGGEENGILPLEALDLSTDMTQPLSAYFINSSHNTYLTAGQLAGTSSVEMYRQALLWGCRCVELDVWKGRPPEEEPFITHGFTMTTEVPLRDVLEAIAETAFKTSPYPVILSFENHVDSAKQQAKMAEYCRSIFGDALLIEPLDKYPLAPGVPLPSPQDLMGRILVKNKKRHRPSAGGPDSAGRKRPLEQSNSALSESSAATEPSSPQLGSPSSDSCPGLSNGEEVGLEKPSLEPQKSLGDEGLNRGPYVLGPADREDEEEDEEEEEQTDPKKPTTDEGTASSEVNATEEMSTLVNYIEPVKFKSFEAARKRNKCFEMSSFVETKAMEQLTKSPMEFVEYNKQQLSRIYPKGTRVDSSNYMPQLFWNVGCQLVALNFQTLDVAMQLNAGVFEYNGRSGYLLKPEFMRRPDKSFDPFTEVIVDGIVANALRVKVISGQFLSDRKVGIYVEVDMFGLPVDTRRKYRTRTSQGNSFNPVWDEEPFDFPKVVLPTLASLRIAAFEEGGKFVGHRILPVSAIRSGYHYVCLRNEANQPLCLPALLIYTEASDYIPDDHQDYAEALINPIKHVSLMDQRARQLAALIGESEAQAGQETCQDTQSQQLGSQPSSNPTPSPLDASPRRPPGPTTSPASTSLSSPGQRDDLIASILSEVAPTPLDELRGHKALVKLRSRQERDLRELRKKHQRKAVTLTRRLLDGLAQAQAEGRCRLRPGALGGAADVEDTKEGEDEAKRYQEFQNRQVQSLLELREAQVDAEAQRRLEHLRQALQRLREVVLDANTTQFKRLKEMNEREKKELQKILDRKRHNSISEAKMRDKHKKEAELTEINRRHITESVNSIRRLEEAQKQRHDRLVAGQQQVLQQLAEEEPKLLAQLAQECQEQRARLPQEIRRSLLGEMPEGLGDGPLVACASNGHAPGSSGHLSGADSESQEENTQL

[6] = target: T2, 1-phosphatidylinositol 4,5-bisphosphate phosphodiesterase gamma-1 (Homo sapiens, UniProt P19174); assay: Counterscreen for inhibitors of phospholipase C isozymes (PLC-B3): Fluorescence-based biochemical high throughput dose response assay to identify inhibitors of phospholipase C isozymes (PLC-gamma1).
T2 sequence (P19174 whole entry): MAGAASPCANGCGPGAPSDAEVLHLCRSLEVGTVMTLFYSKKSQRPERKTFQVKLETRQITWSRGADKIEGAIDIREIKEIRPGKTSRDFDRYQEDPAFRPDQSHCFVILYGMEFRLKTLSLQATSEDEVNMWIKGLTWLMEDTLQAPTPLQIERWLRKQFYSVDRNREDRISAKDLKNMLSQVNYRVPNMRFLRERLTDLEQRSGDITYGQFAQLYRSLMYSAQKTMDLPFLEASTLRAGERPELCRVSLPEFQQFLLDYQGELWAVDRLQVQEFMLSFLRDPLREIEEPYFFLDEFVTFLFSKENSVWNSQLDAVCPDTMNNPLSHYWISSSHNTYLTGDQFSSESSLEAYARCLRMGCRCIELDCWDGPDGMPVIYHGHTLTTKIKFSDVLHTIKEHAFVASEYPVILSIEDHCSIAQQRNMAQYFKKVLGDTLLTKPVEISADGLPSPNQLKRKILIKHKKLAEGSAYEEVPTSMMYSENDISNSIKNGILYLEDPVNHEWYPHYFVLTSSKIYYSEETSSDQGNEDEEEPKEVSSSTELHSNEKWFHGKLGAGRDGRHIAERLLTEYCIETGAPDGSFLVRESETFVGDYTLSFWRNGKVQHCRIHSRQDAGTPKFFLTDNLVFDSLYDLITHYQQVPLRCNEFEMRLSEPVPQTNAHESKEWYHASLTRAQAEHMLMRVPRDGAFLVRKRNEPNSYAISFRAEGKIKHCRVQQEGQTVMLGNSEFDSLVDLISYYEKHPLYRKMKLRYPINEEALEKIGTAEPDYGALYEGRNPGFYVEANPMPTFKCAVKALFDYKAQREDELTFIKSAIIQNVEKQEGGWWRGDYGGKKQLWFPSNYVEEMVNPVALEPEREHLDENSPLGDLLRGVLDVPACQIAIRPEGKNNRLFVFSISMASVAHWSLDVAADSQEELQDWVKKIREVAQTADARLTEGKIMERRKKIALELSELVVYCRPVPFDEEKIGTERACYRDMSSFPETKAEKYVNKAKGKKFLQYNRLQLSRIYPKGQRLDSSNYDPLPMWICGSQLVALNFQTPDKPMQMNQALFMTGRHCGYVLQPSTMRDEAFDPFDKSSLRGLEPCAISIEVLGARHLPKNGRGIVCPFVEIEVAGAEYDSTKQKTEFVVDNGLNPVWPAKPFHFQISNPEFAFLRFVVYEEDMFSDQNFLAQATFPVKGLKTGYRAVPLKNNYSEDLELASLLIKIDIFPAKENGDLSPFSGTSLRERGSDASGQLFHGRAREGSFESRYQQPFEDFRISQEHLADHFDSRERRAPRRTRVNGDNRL

[7] = target: T3, Bifunctional protein GlmU (Mycobacterium tuberculosis, UniProt P9WMN3); assay: Inhibitors of Mycobacterial Glucosamine-1-phosphate acetyl transferase (GlmU). Secondary screen.; parameters: species or system Mycobacterium tuberculosis H37Rv
T3 sequence (P9WMN3 whole entry): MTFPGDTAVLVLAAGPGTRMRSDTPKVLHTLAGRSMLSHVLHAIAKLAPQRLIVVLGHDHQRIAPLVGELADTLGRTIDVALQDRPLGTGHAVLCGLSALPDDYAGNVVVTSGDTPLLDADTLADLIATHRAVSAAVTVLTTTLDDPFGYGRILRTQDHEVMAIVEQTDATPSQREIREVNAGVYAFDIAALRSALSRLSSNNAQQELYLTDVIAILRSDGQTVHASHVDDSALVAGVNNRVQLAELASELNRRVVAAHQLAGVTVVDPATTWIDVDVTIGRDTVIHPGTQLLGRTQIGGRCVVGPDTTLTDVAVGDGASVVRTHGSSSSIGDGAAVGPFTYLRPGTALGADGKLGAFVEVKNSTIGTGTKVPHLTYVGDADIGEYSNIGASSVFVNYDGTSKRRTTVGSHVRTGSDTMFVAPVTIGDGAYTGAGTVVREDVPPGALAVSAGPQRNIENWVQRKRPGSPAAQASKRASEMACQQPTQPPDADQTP

BJ [8] = assay: cytotoxicity toward BJ-TERT fibroblasts, dose response, cell-based, RAS-independent, luminescence (AID 1933); assay type: functional; details: Homo sapiens
BJ [9] = assay: cytotoxicity toward Ras-transformed BJeLR fibroblasts, dose response, cell-based, alamar blue fluorescence, cherrypicked samples (AID 2631); assay type: functional; details: Homo sapiens;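 note: confirmatory dose-response assay in RAS-dependent BJ fibroblasts engineered with TERT, LT and ST, with cytotoxicity read by fluorescence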
BJ [10] = assay: cytotoxicity toward BJ-TERT-LT-ST fibroblasts, dose response, cell-based, RAS-independent, luminescence (AID 1935); assay type: functional; details: Homo sapiens;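 note: BJ fibroblasts immortalized with TERT plus LT and ST oncogenes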
[11] = cytotoxicity toward HCT116 cells – cell-based, CellTiter-Glo luminescence, IC50, dose response (AID 1117332); assay type: functional; details: HCT-116
[12] = RKO cell viability reduction, dose response, CellTiter-Glo luminescence (AID 1117322); assay type: functional
[13] = cytotoxicity toward DRD oncogenic fibroblasts, dose response, cell-based, non-viral oncogenic, luminescence (AID 1934); assay type: functional; details: Homo sapiens
[14] = cytotoxicity toward HT-29 cells – cell-based, CellTiter-Glo luminescence, IC50, dose response (AID 1117330); assay type: functional
[15] = SNU-C1 cell viability reduction, dose response, CellTiter-Glo luminescence (AID 1117323); assay type: functional, cell-based
[16] = HeLa 2N DNA content increase, dose response, cell-based, IC50 (AID 1117349); assay type: functional
[17] = CellTiter-Glo luminescent dose response of DLD-1 viability loss (AID 1117352); assay type: functional
BJ [18] = assay: cells; assay type: functional, cell-based; details: Homo sapiens
[19] = HeLa 4N DNA content increase, dose response, cell-based, IC50 (AID 1117351); assay type: functional
[20] = HCT116 cell viability decrease, GSK3B pretreatment – CellTiter-Glo, IC50, dose response (AID 1117339); assay type: functional; details: HCT-116

Chain of Paired box protein Pax-8 (Q06710 whole entry, the tested form may be a part): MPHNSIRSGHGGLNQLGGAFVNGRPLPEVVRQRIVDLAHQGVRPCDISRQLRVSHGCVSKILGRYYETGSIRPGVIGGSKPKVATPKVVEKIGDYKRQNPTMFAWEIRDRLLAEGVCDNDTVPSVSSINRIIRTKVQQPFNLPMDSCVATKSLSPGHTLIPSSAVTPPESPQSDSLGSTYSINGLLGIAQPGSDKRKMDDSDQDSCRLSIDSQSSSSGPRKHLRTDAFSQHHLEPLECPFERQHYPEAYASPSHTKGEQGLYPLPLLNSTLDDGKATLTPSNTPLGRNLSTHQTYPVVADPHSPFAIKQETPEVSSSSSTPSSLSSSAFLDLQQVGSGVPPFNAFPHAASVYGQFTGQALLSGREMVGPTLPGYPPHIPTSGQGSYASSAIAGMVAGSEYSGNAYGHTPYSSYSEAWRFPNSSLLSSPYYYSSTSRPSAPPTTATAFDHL

COc1ccccc1C#Cc1ccc2c(c1)O[C@H](CN(C)Cc1ccncc1)[C@@H](C)CN([C@@H](C)CO)S2(=O)=O
AC50 [1]: 25.9 µM (active)
AC50 [2]: 61.5 µM (active)
AC50 [3]: 57.8 µM (active)
AC50 (Paired box protein Pax-8): 10.9 µM (active)
AC50 [4]: 38.1 µM (active)

CCNC(=O)C[C@H]1CC[C@H]2[C@@H](COc3ccc(NC(=O)c4ccc5c(c4)OCO5)cc3C(=O)N2C)O1
IC50 [5]: 45.1 µM (inactive)
IC50 [6]: 47.8 µM (inactive)

Cc1ccc(OCC(=O)N/N=C\c2ccc(-c3cccc(C(=O)O)c3)o2)c(C)c1
IC50 [7]: 137 µM (active)

Cn1cnc([N+](=O)[O-])c1Sc1ncnc2[nH]cnc12 [AZATHIOPRINE]
EC50 (BJ [8]): > 150 µM (not active)
EC50 (BJ [9]): > 133 µM (inactive)
EC50 (BJ [10]): > 150 µM (not active)
IC50 [11]: 0.207 µM (active)
IC50 [12]: 2.66 µM (active)
EC50 [13]: 2.9 µM (active)
IC50 [14]: > 20 µM (inactive)
IC50 [15]: > 20 µM (inactive)
IC50 [16]: > 10 µM (inactive)
IC50 [17]: 0.364 µM (active)
EC50 (BJ [18]): 5.04 µM (inconclusive)
IC50 [19]: > 10 µM (inactive)
IC50 [20]: 0.623 µM (active)

CCCCCCCCCCCCNCCNCCNCC(=O)O [DODICIN]
IC50 [16]: > 10 µM (inactive)
IC50 [19]: > 10 µM (inactive)

— ChEMBL document CHEMBL1201862, “PubChem BioAssay data set” (2004)
